Assay results: the kinase profiling compilation of Christmann-Franck et al. (2016)

Key:
Assay in all cases: KINOMEscan competition binding
[1] = system: ABL1 (human), P00519 [M351T]
BMP2K (human) = BMP2K (human) (UniProt Q9NSY1)
CDK11B (human) = CDK11B (human) (UniProt P21127)
CDK4 CCND1 (human) = CDK4 CCND1 (human) (UniProt P11802+P24385)
CDK7 (human) = CDK7 (human) (UniProt P50613)
CDKL1 (human) = CDKL1 (human) (UniProt Q00532)
CLK3 (human) = CLK3 (human) (UniProt P49761)
DCLK2 (human) = DCLK2 (human) (UniProt Q8N568)
[2] = system: EGFR (human), P00533 [P753S; 747-752 del]
EPHA1 (human) = EPHA1 (human) (UniProt P21709)
FER (human) = FER (human) (UniProt P16591)
[3] = system: FLT3 (human), P36888 [D835H]
GRK4 (human) = GRK4 (human) (UniProt P32298)
[4] = system: KIT (human), P10721 [V559D/T670I]
LCK (human) = LCK (human) (UniProt P06239)
MAP2K2 (human) = MAP2K2 (human) (UniProt P36507)
MAP3K1 (human) = MAP3K1 (human) (UniProt Q13233)
MARK4 (human) = MARK4 (human) (UniProt Q96L34)
MAST1 (human) = MAST1 (human) (UniProt Q9Y2H9)
MKNK1 (human) = MKNK1 (human) (UniProt Q9BUB5)
MST1R (human) = MST1R (human) (UniProt Q04912)
MYLK3 (human) = MYLK3 (human) (UniProt Q32MK0)
NUAK1 (human) = NUAK1 (human) (UniProt O60285)
NUAK2 (human) = NUAK2 (human) (UniProt Q9H093)
PAK3 (human) = PAK3 (human) (UniProt O75914)
PHKG1 (human) = PHKG1 (human) (UniProt Q16816)
[5] = system: PIK3CA (human), P42336 [E545K]
[6] = system: PIK3CA (human), P42336 [H1047Y]
PIK3CD (human) = PIK3CD (human) (UniProt O00329)
PRKCI (human) = PRKCI (human) (UniProt P41743)
PRKD2 (human) = PRKD2 (human) (UniProt Q9BZL6)
RPS6KA1 KD2 (human) = RPS6KA1 KD2 (human) (UniProt Q15418)
RPS6KA5 KD1 (human) = RPS6KA5 KD1 (human) (UniProt O75582)
RPS6KA6 KD1 (human) = RPS6KA6 KD1 (human) (UniProt Q9UK32)
SRPK1 (human) = SRPK1 (human) (UniProt Q96SB4)
SRPK3 (human) = SRPK3 (human) (UniProt Q9UPE1)
STK17B (human) = STK17B (human) (UniProt O94768)
STK38 (human) = STK38 (human) (UniProt Q15208)
TIE1 (human) = TIE1 (human) (UniProt P35590)
[7] = biological target: TYK2 JH2 pseudokinase (human) (UniProt P29597)
ZAP70 (human) = ZAP70 (human) (UniProt P43403)

Chain of KIT (human), P10721 [V559D/T670I] (P10721 whole entry V559D/T670I, looked up): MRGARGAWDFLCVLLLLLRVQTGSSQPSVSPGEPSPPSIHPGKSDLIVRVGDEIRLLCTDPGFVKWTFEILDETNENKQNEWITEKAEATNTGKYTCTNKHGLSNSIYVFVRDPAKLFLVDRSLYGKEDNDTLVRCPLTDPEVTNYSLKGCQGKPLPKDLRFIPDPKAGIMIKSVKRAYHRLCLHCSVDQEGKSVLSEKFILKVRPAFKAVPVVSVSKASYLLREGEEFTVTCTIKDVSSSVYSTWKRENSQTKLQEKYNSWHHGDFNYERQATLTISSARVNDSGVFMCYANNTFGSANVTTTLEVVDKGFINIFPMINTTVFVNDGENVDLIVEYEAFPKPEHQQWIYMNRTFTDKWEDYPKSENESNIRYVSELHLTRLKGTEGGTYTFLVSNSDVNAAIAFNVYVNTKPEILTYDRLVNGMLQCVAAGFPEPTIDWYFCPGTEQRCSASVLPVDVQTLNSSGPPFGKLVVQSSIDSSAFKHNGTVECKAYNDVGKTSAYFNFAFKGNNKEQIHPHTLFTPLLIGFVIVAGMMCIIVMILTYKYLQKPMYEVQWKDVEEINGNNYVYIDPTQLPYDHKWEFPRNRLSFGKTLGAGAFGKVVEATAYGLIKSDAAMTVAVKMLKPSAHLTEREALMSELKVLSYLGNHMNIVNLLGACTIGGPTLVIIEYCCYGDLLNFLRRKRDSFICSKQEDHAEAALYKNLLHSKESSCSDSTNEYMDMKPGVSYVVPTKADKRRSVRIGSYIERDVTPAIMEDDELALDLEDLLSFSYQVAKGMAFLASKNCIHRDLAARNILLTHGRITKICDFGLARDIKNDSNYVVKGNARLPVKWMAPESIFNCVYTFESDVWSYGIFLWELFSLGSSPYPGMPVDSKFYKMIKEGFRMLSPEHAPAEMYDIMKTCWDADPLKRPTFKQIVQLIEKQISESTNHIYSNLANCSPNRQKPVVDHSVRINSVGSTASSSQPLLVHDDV
Chain of RPS6KA6 KD1 (human) (Q9UK32 whole entry, looked up): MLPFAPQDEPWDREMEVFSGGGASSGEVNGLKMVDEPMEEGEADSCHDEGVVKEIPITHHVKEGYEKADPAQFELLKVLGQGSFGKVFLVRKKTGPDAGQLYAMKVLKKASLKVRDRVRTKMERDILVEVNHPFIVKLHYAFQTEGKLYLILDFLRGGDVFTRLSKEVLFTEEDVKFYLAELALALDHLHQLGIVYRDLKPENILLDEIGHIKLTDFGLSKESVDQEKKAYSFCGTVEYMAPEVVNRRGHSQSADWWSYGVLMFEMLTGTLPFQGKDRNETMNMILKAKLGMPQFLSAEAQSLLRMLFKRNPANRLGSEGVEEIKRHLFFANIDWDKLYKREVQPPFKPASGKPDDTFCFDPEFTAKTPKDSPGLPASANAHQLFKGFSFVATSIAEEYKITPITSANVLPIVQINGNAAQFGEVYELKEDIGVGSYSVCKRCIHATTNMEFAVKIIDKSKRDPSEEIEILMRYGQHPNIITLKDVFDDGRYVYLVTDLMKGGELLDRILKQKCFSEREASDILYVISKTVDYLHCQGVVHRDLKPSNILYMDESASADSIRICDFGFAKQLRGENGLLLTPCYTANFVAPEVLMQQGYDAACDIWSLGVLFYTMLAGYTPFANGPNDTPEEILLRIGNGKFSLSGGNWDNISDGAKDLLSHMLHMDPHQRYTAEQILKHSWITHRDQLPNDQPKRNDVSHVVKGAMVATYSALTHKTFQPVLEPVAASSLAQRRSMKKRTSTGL
Chain of PRKCI (human) (P41743 whole entry, looked up): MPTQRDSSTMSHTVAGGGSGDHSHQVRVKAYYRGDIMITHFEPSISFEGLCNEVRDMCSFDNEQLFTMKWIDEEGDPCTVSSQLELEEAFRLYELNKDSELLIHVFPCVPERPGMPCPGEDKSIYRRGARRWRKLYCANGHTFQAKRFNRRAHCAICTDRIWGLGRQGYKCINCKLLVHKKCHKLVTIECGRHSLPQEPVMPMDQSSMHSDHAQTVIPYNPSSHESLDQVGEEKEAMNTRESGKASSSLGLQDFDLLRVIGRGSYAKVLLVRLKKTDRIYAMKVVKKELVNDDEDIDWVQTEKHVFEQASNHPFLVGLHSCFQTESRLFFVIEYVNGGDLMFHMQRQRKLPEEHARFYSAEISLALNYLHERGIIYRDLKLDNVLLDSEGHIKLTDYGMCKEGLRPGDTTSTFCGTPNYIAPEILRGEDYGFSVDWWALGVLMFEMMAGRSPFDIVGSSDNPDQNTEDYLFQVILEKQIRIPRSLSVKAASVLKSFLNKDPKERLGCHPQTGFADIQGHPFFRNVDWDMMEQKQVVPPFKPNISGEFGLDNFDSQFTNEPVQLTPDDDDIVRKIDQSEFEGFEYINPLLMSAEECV
Chain of CDKL1 (human) (Q00532 whole entry, looked up): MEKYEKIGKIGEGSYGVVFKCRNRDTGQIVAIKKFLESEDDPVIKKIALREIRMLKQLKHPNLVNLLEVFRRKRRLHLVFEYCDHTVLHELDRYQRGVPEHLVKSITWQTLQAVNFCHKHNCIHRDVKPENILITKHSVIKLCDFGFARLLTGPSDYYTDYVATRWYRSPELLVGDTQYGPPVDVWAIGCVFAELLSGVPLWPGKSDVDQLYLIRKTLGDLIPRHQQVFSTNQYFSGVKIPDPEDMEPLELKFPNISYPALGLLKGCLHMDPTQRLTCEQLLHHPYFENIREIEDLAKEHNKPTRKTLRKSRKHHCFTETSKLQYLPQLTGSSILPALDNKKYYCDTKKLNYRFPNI
Chain of PIK3CA (human), P42336 [H1047Y] (P42336 whole entry H1047Y, looked up): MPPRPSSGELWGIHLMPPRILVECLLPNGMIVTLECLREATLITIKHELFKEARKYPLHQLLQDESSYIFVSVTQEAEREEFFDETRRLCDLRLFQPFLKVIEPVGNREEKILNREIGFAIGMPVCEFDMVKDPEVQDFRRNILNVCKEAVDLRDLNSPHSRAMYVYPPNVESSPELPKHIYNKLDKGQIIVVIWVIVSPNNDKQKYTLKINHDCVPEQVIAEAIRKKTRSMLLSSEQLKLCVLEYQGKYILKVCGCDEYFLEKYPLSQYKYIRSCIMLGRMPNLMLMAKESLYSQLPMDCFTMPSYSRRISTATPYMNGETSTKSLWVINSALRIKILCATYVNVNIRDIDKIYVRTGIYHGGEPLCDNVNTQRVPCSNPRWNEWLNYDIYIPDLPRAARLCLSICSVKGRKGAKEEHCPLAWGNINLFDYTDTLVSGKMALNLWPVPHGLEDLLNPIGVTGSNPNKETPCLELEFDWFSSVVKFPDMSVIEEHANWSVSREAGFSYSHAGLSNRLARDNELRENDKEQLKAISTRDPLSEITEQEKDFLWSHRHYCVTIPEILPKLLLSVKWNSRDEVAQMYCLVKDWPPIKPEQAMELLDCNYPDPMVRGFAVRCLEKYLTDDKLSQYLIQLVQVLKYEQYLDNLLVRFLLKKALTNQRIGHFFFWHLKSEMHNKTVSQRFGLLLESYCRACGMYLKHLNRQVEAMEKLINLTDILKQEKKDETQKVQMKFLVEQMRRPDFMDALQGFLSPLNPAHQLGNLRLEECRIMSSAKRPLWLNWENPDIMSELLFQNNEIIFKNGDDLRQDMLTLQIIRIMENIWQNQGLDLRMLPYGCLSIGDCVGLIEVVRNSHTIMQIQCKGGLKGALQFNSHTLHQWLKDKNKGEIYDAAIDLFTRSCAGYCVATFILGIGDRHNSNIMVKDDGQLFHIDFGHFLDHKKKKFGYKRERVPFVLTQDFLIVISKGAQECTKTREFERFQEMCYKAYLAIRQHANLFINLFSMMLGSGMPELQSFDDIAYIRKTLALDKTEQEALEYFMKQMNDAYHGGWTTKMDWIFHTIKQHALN
Chain of PIK3CD (human) (O00329 whole entry, looked up): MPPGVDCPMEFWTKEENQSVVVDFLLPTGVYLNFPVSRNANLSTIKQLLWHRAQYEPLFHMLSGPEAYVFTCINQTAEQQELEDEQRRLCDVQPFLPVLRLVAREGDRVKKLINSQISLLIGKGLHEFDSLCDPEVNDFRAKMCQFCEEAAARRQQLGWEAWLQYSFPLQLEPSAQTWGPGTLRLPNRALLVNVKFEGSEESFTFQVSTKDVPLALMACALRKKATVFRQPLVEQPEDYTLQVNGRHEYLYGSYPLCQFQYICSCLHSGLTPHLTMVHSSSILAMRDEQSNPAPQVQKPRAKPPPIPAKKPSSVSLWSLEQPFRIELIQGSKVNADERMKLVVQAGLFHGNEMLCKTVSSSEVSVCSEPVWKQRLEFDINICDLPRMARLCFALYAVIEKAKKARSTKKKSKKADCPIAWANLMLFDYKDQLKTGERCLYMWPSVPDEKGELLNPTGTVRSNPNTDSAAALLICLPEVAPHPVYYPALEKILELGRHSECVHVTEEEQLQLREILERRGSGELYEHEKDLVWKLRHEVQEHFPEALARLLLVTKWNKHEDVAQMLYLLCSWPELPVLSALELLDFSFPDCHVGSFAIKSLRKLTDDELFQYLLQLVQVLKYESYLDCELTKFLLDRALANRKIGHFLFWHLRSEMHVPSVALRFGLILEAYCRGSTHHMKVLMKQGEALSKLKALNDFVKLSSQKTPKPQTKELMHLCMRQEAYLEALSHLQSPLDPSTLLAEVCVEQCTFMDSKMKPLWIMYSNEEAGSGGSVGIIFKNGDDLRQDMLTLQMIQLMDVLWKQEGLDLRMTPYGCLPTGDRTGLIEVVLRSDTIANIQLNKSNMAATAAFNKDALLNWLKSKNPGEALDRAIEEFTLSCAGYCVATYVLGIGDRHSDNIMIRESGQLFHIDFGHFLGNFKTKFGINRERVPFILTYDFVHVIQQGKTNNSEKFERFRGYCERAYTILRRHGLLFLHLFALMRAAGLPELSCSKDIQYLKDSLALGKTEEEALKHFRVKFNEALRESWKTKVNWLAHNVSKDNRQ
Chain of PIK3CA (human), P42336 [E545K] (P42336 whole entry E545K, looked up): as the sequence (P42336 whole entry H1047Y, looked up) above, with E545K, Y1047H counted along it

Cc1ccc(NC(=O)c2ccc(NC(=O)/C=C/CN(C)C)cc2)cc1Nc1nccc(-c2cccnc2)n1
kinase still bound, per cent of control ([1]; compound 10.0 µM): 47%
kinase still bound, per cent of control (BMP2K (human); compound 10.0 µM): 88%
kinase still bound, per cent of control (CDK11B (human); compound 10.0 µM): 100%
kinase still bound, per cent of control (CDK4 CCND1 (human); compound 10.0 µM): 100%
kinase still bound, per cent of control (CDK7 (human); compound 10.0 µM): 68%
kinase still bound, per cent of control (CDKL1 (human); compound 10.0 µM): 100%
kinase still bound, per cent of control (CLK3 (human); compound 10.0 µM): 93%
kinase still bound, per cent of control (DCLK2 (human); compound 10.0 µM): 100%
kinase still bound, per cent of control ([2]; compound 10.0 µM): 56%
kinase still bound, per cent of control (EPHA1 (human); compound 10.0 µM): 91%
kinase still bound, per cent of control (FER (human); compound 10.0 µM): 90%
kinase still bound, per cent of control ([3]; compound 10.0 µM): 66%
kinase still bound, per cent of control (GRK4 (human); compound 10.0 µM): 88%
kinase still bound, per cent of control ([4]; compound 10.0 µM): 18%
kinase still bound, per cent of control (LCK (human); compound 10.0 µM): 54%
kinase still bound, per cent of control (MAP2K2 (human); compound 10.0 µM): 74%
kinase still bound, per cent of control (MAP3K1 (human); compound 10.0 µM): 100%
kinase still bound, per cent of control (MARK4 (human); compound 10.0 µM): 77%
kinase still bound, per cent of control (MAST1 (human); compound 10.0 µM): 89%
kinase still bound, per cent of control (MKNK1 (human); compound 10.0 µM): 88%
kinase still bound, per cent of control (MST1R (human); compound 10.0 µM): 100%
kinase still bound, per cent of control (MYLK3 (human); compound 10.0 µM): 97%
kinase still bound, per cent of control (NUAK1 (human); compound 10.0 µM): 100%
kinase still bound, per cent of control (NUAK2 (human); compound 10.0 µM): 69%
kinase still bound, per cent of control (PAK3 (human); compound 10.0 µM): 68%
kinase still bound, per cent of control (PHKG1 (human); compound 10.0 µM): 87%
kinase still bound, per cent of control ([5]; compound 10.0 µM): 96%
kinase still bound, per cent of control ([6]; compound 10.0 µM): 72%
kinase still bound, per cent of control (PIK3CD (human); compound 10.0 µM): 95%
kinase still bound, per cent of control (PRKCI (human); compound 10.0 µM): 97%
kinase still bound, per cent of control (PRKD2 (human); compound 10.0 µM): 100%
kinase still bound, per cent of control (RPS6KA1 KD2 (human); compound 10.0 µM): 77%
kinase still bound, per cent of control (RPS6KA5 KD1 (human); compound 10.0 µM): 90%
kinase still bound, per cent of control (RPS6KA6 KD1 (human); compound 10.0 µM): 50%
kinase still bound, per cent of control (SRPK1 (human); compound 10.0 µM): 74%
kinase still bound, per cent of control (SRPK3 (human); compound 10.0 µM): 76%
kinase still bound, per cent of control (STK17B (human); compound 10.0 µM): 64%
kinase still bound, per cent of control (STK38 (human); compound 10.0 µM): 80%
kinase still bound, per cent of control (TIE1 (human); compound 10.0 µM): 80%
kinase still bound, per cent of control ([7]; compound 10.0 µM): 14%
kinase still bound, per cent of control (ZAP70 (human); compound 10.0 µM): 56%

CN(C)C/C=C/C(=O)Nc1cccc(C(=O)Nc2ccc(Nc3nccc(/C(C#N)=C4\Nc5ccccc5S4)n3)cc2)c1
kinase still bound, per cent of control ([1]; compound 1.0 µM): 69%
kinase still bound, per cent of control (BMP2K (human); compound 1.0 µM): 51%
kinase still bound, per cent of control (CDK11B (human); compound 1.0 µM): 70%
kinase still bound, per cent of control (CDK4 CCND1 (human); compound 1.0 µM): 100%
kinase still bound, per cent of control (CDK7 (human); compound 1.0 µM): 94%
kinase still bound, per cent of control (CDKL1 (human); compound 1.0 µM): 66%
kinase still bound, per cent of control (CLK3 (human); compound 1.0 µM): 100%
kinase still bound, per cent of control (DCLK2 (human); compound 1.0 µM): 100%
kinase still bound, per cent of control ([2]; compound 1.0 µM): 100%
kinase still bound, per cent of control (EPHA1 (human); compound 1.0 µM): 89%
kinase still bound, per cent of control (FER (human); compound 1.0 µM): 82%
kinase still bound, per cent of control ([3]; compound 1.0 µM): 62%
kinase still bound, per cent of control (GRK4 (human); compound 1.0 µM): 78%
Kd [4]: 160 nM
kinase still bound, per cent of control ([4]; compound 1.0 µM): 6.6%
kinase still bound, per cent of control (LCK (human); compound 1.0 µM): 100%
kinase still bound, per cent of control (MAP2K2 (human); compound 1.0 µM): 100%
kinase still bound, per cent of control (MAP3K1 (human); compound 1.0 µM): 100%
kinase still bound, per cent of control (MARK4 (human); compound 1.0 µM): 100%
kinase still bound, per cent of control (MAST1 (human); compound 1.0 µM): 100%
kinase still bound, per cent of control (MKNK1 (human); compound 1.0 µM): 100%
kinase still bound, per cent of control (MST1R (human); compound 1.0 µM): 100%
kinase still bound, per cent of control (MYLK3 (human); compound 1.0 µM): 100%
kinase still bound, per cent of control (NUAK1 (human); compound 1.0 µM): 100%
kinase still bound, per cent of control (NUAK2 (human); compound 1.0 µM): 100%
kinase still bound, per cent of control (PAK3 (human); compound 1.0 µM): 84%
kinase still bound, per cent of control (PHKG1 (human); compound 1.0 µM): 94%
kinase still bound, per cent of control ([5]; compound 1.0 µM): 100%
kinase still bound, per cent of control ([6]; compound 1.0 µM): 100%
kinase still bound, per cent of control (PIK3CD (human); compound 1.0 µM): 100%
kinase still bound, per cent of control (PRKCI (human); compound 1.0 µM): 100%
kinase still bound, per cent of control (PRKD2 (human); compound 1.0 µM): 100%
kinase still bound, per cent of control (RPS6KA1 KD2 (human); compound 1.0 µM): 100%
kinase still bound, per cent of control (RPS6KA5 KD1 (human); compound 1.0 µM): 100%
kinase still bound, per cent of control (RPS6KA6 KD1 (human); compound 1.0 µM): 100%
kinase still bound, per cent of control (SRPK1 (human); compound 1.0 µM): 91%
kinase still bound, per cent of control (SRPK3 (human); compound 1.0 µM): 82%
kinase still bound, per cent of control (STK17B (human); compound 1.0 µM): 100%
kinase still bound, per cent of control (STK38 (human); compound 1.0 µM): 100%
kinase still bound, per cent of control (TIE1 (human); compound 1.0 µM): 70%
kinase still bound, per cent of control ([7]; compound 1.0 µM): 33%
kinase still bound, per cent of control (ZAP70 (human); compound 1.0 µM): 81%
